Test results taken from patent publication US11072632B2, “Inhibitors of 17β-HSD1, 17β-HSD3 and 17β-HSD10” (UNIVERSITÉ LAVAL, priority 2011, dated 2021).

Test system: T-47D tumors
Experiment: Inhibition of E1-stimulated T-47D tumor growth in nude OVX mice (xenograft)
Type: in vivo, mouse
Experimental: Female OVX BALB/c athymic nude mice weighing approximately 20 g were obtained from Charles-River, Inc. (St-Constant, Qc., Canada). The animals were housed 5 per cage. […] T-47D tumor growth was stimulated using 0.1 μg of E1 s.c. per mouse per day for 15 days. From day 16, animals with tumors were randomized in function of tumor volume and separated into three groups. Group 1 (control mice) was treated s.c. with 100 μL of vehicle alone (8% EtOH/92% PG) per mouse per day. Group 2 (E1 0.1 μg) was treated with E1 (0.1 μg/day, s.c. per mouse) during 32 days. Group 3 (E1 0.1 μg+Compound V 250 μg) was treated with E1 (0.1 μg/day) and Compound V (250 μg/day) per mouse in a combined s.c. injection for 32 days. The mice were weighed at start and volumes of tumors were determined by external caliper twice a week and the greatest longitudinal diameter (length) and the greatest transverse diameter (width) were determined. Tumor volume based on caliper measurements was calculated by the modified ellipsoidal formula: Tumor volume=½(length×width^2) (Jensen M M, Jorgensen J T, Binderup T, Kjaer A. Tumor volume in subcutaneous mouse xenografts measured by microCT is more accurate and reproducible than determined by 18F-FDG-microPET or external caliper. BMC Med Imaging 2008; 8:16). At the end of the studies the mice were terminally anaesthetized, final body weights and tumor sizes were determined. Uteri and vagina were removed, excised of fat and weighed (Day J M, Foster P A, Tutill H J, Parsons M F, Newman S P, Chander S K, et al. 17beta-hydroxysteroid dehydrogenase type 1, and not type 12, is a target for endocrine therapy of hormone-dependent breast cancer. Int J Cancer 2008; 122:1931-40; Husen B, Huhtinen K, Poutanen M, Kangas L, Messinger J, Thole H. Evaluation of inhibitors for 17beta-hydroxysteroid dehydrogenase type 1 in vivo in immunodeficient mice inoculated with MCF-7 cells stably expressing the recombinant human enzyme. Mol Cell Endocrinol 2006; 248:109-13; Husen B, Huhtinen K, Saloniemi T, Messinger J, Thole H H, Poutanen M: Human hydroxysteroid (17-beta) dehydrogenase 1 expression enhances estrogen sensitivity of MCF-7 breast cancer cell xenografts. Endocrinology 2006; 147:5333-9; Messinger J, Hirvela L, Husen B, Kangas L, Koskimies P, Pentikainen O, et al. New inhibitors of 17beta-hydroxysteroid dehydrogenase type 1. Mol Cell Endocrinol 2006; 248:192-8).

In the case of `C[C@]12CC[C@@H]3c4ccc(CCBr)cc4CC[C@H]3[C@@H]1C[C@H](Cc1cccc(C(N)=O)c1)[C@@H]2O` [Compound V, 3-{[(16β,17β)-3-(2-bromoethyl)-17-hydroxyestra-1(10),2,4-trien-16-yl]methyl}benzamide], the toxicity (250 μg/day/mouse (s.c.), 32 days) is reported as “no apparent toxicity”, the “effect on mouse weight” value (32-day treatment period) is reported as “no effect” and the “growth of E1-stimulated tumors inhibited (%)” value (E1 0.1 μg/day + Compound V 250 μg/day s.c., 32 days) is reported as 74%. For the same compound, the “effect on E1-stimulated uterine and vaginal weight” value (E1 0.1 μg/day + Compound V 250 μg/day, 32 days) was “had no effect on the E1-stimulated uterine and vaginal weight increase”.
